In patent US11180462B2, “Microbiocidal oxadiazole derivatives” (SYNGENTA PARTICIPATIONS AG, priority 2015, dated 2021):

Assays:
[1] = system: Puccinia recondita f. Sp. Tritici; test: Fungicidal activity against Puccinia recondita f. sp. tritici / wheat / leaf disc curative (brown rust); type: in vivo; conditions: foliar, 24 h, 200 ppm in the applied formulation, wheat leaf segments, curative (applied 1 day after inoculation), compared to untreated control leaf disks, read-out: disease control
Procedure, shortened: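 Inoculate cv. Kanzler segments on agar; hold dark, 19° C, 75% RH. Spray diluted formulated compound at day 1. Incubate 12 h light/12 h dark, same temperature and humidity; score % control vs untreated 6–8 days later.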

[2] = system: Phakopsora Pachyrhizi; test: Fungicidal activity against Phakopsora pachyrhizi / soybean / leaf disc preventative (Asian soybean rust); type: in vivo; conditions: foliar, 200 ppm in the applied formulation, soybean leaf disks, compared to untreated control leaf disks, read-out: disease control
Procedure, shortened: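 Scored 12 to 14 days post-application as percent control relative to untreated check discs, rust spores were sprayed under the disc one day after compound treatment. Incubation: 20°C, 75% rh, first 24–36 h in darkness, then 12 h daily light; discs kept on water agar.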

[3] = system: Glomerella lagenarium (Colletotrichum lagenarium); test: Fungicidal activity against Glomerella lagenarium (Colletotrichum lagenarium) liquid culture / cucumber / preventative (anthracnose); type: cell-based; conditions: Colletotrichum orbiculare; 20 ppm in the applied formulation; liquid culture (PDB), growth inhibition measured photometrically after 3 to 4 days; compared to untreated control; read-out: disease control
Procedure, shortened: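 Percent activity against the untreated check was derived from photometric growth measurements made 2 to 7 days after conidia in potato dextrose broth were combined with compound at 20 ppm. Cultures were kept dark at 24 °C and 96% humidity.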

[4] = system: Puccinia recondita f. Sp. Tritici; test: Fungicidal activity against Puccinia recondita f. sp. tritici / wheat / leaf disc preventative (brown rust); type: in vivo; conditions: foliar, 200 ppm in the applied formulation, wheat leaf segments, preventative, compared to untreated control leaf disks, read-out: disease control
Procedure, shortened: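 200 ppm spray on wheat cv. Kanzler leaf segments; spore inoculation +1 day; 19° C., 75% rh, 12 h/12 h light cycle; single rating of % control vs untreated at 7 to 9 days.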

Compound | pest or weed control at 200 ppm [1] [%] | pest or weed control at 200 ppm [2] [%] | inhibition of growth at 20 ppm [3] [%] | pest or weed control at 200 ppm [4] [%]
CON(Cc1ccc(-c2noc(C(F)(F)F)n2)cc1)C(=O)C1C(C)(C)C1(C)C [Compound 1.14, N-methoxy-2,2,3,3-tetramethyl-N-[[4-[5-(trifluoromethyl)-1,2,4-oxadiazol-3-yl]phenyl]methyl]-cyclopropane-carboxamide] | ≥ 80 | ≥ 80 |  | 
CON(Cc1ccc(-c2noc(C(F)(F)F)n2)cc1)C(=O)C1(c2ccccc2)CC1 [Compound 1.23, N-methoxy-1-phenyl-N-[[4-[5-(trifluoromethyl)-1,2,4-oxadiazol-3-yl]phenyl]methyl]-cyclopropane-carboxamide] | ≥ 80 | ≥ 80 | ≥ 80 | 
CON(Cc1ccc(-c2noc(C(F)(F)F)n2)cc1)C(=O)c1ccc(Cl)cc1 [Compound 1.71, 4-chloro-N-methoxy-N-[[4-[5-(trifluoromethyl)-1,2,4-oxadiazol-3-yl]phenyl]methyl]-benzamide] | ≥ 80 | ≥ 80 | ≥ 80 | 
O=C(C1CC1(F)F)N(Cc1ccc(-c2noc(C(F)(F)F)n2)cc1)CC1CC1 (stereo not shown) [Compound 1.207, N-(cyclopropylmethyl)-2,2-difluoroN-[[4-[5-(trifluoromethyl)-1,2,4-oxadiazol-3-yl]phenyl]methyl]-cyclopropane-carboxamide] | ≥ 80 | ≥ 80 | ≥ 80 | 
CCCC(=O)N(Cc1ccc(-c2noc(C(F)(F)F)n2)cc1)CC1CC1 [Compound 1.210, N-(cyclopropylmethyl)-N-[[4-[5-(trifluoromethyl)-1,2,4-oxadiazol-3-yl]phenyl]methyl]-butanamide] | ≥ 80 | ≥ 80 | ≥ 80 | 
CCC(=O)N(Cc1ccc(-c2noc(C(F)(F)F)n2)cc1F)OC [Compound 1.568, N-[[2-fluoro-4-[5-(trifluoromethyl)-1,2,4-oxadiazol-3-yl]phenyl]methyl]-N-methoxy-propanamide] | ≥ 80 | ≥ 80 | ≥ 80 | 
CCC(=O)N(Cc1ccc(-c2noc(C(F)(F)F)n2)cn1)OC [Compound 1.571, N-methoxy-N-[[5-[5-(trifluoromethyl)-1,2,4-oxadiazol-3-yl]-2-pyridyl]methyl]-propanamide] | ≥ 80 | ≥ 80 | ≥ 80 | 
O=C(C1CC1)N(Cc1ccc(-c2noc(C(F)(F)F)n2)cc1)CC(F)(F)F [Compound 1.586, N-(2,2,2-trifluoroethyl)-N-[[4-[5-(trifluoromethyl)-1,2,4-oxadiazol-3-yl]phenyl]methyl]-cyclopropane-carboxamide] | ≥ 80 | ≥ 80 | ≥ 80 | 
O=C(C1CC1(F)F)N(CCO)Cc1ccc(-c2noc(C(F)(F)F)n2)cc1 (stereo not shown) [Compound 1.708, 2,2-difluoro-N-(2-hydroxyethyl)-N-[[4-[5-(trifluoromethyl)-1,2,4-oxadiazol-3-yl]phenyl]methyl]-cyclopropane-carboxamide] |  | ≥ 80 | ≥ 80 | ≥ 80
O=C(c1ccccc1Cl)N(CCO)Cc1ccc(-c2noc(C(F)(F)F)n2)cc1 [Compound 1.709, 2-chloro-N-(2-hydroxyethyl)-N-[[4-[5-(trifluoromethyl)-1,2,4-oxadiazol-3-yl]phenyl]methyl]-benzamide] |  | ≥ 80 | ≥ 80 | ≥ 80
O=C(OCCN(Cc1ccc(-c2noc(C(F)(F)F)n2)cc1)C(=O)C1CCC1)C1CCC1 [Compound 1.715, 2-[cyclobulanecarbonyl-[[4-[5-(trifluoromethyl)-1,2,4-oxadiazol-3-yl]phenyl]methyl]-amino]ethyl cyclobutane-carboxylate] |  | ≥ 80 | ≥ 80 | ≥ 80
COCC(=O)OCCN(Cc1ccc(-c2noc(C(F)(F)F)n2)cc1)C(=O)COC [Compound 1.716, 2-[(2-methoxy-acetyl)-[[4-[5-(trifluoromethyl)-1,2,4-oxadiazol-3-yl]phenyl]methyl]-amino]ethyl 2-methoxyacetate] |  | ≥ 80 | ≥ 80 | ≥ 80
CCC(C)C(=O)N(CCO)Cc1ccc(-c2noc(C(F)(F)F)n2)cc1 (stereo not shown) [Compound 1.720, N-(2-hydroxyethyl)-2-methyl-N-[[4-[5-(trifluoromethyl)-1,2,4-oxadiazol-3-yl]phenyl]methyl]-butanamide] |  | ≥ 80 | ≥ 80 | ≥ 80
N#CC1(C(=O)N(CCO)Cc2ccc(-c3noc(C(F)(F)F)n3)cc2)CC1 [Compound 1.729, 1-cyano-N-(2-hydroxyethyl)-N-[[4-[5-(trifluoromethyl)-1,2,4-oxadiazol-3-yl]phenyl]methyl]-cyclopropane-carboxamide] |  | ≥ 80 | ≥ 80 | ≥ 80
O=C(CC(F)(F)F)N(CCO)Cc1ccc(-c2noc(C(F)(F)F)n2)cc1 [Compound 1.733, 3,3,3-trifluoro-N-(2-hydroxyethyl)-N-[[4-[5-(trifluoromethyl)-1,2,4-oxadiazol-3-yl]phenyl]methyl]-propanamide] |  | ≥ 80 | ≥ 80 | ≥ 80
O=C(CC(F)(F)F)OCCN(Cc1ccc(-c2noc(C(F)(F)F)n2)cc1)C(=O)CC(F)(F)F [Compound 1.734, 2-[[4-[5-(trifluoromethyl)-1,2,4-oxadiazol-3-yl]phenyl]methyl-(3,3,3-trifluoropropanoyl)-amino]ethyl 3,3,3-trifluoropropanoate] |  | ≥ 80 | ≥ 80 | ≥ 80
CC(=O)N(CCO)Cc1ccc(-c2noc(C(F)(F)F)n2)cc1 [Compound 1.735, N-(2-hydroxyethyl)-N-[[4-[5-(trifluoromethyl)-1,2,4-oxadiazol-3-yl]phenyl]methyl]-acetamide] |  | ≥ 80 | ≥ 80 | ≥ 80
O=C(CC1CC1)N(CCO)Cc1ccc(-c2noc(C(F)(F)F)n2)cc1 [Compound 1.736, 2-cyclopropyl-N-(2-hydroxyethyl)-N-[[4-[5-(trifIuoromethyl)-1,2,4-oxadiazol-3-yl]phenyl]methyl]-acetamide] |  | ≥ 80 | ≥ 80 | ≥ 80
O=C(CC1CC1)OCCN(Cc1ccc(-c2noc(C(F)(F)F)n2)cc1)C(=O)CC1CC1 [Compound 1.737, 2-[(2-cyclopropylacetyl)-[[4-[5-(trifluoromethyl)-1,2,4-oxadiazol-3-yl]phenyl]methyl]-amino]ethyl 2-cyclopropylacetate] |  | ≥ 80 | ≥ 80 | ≥ 80
COC(C)C(=O)N(Cc1ccc(-c2noc(C(F)(F)F)n2)cc1)C1COC1 (stereo not shown) [Compound 1.750, 2-methoxy-N-(oxetan-3-yl)-N-[[4-[5-(trifluoromethyl)-1,2,4-oxadiazol-3-yl]phenyl]methyl]-propanamide] | ≥ 80 | ≥ 80 |  | 
O=C(c1ccccc1Cl)N(O)Cc1ccc(-c2noc(C(F)(F)F)n2)cc1 [Compound 1.754, 2-chloro-N-hydroxy-N-[[4-[5-(trifluoromethyl)-1,2,4-oxadiazol-3-yl]phenyl]methyl]-benzamide] |  | ≥ 80 | ≥ 80 | ≥ 80
CC(C)(C)OC(=O)ON(Cc1ccc(-c2noc(C(F)(F)F)n2)cc1)C(=O)OC(C)(C)C [Compound 2.21, [tert-butoxycarbonyl-[[4-[5-(trifluoromethyl)-1,2,4-oxadiazol-3-yl]phenyl]methyl]-amino]tert-butyl carbonate] |  | ≥ 80 | ≥ 80 | ≥ 80
CON(Cc1ccc(-c2noc(C(F)(F)F)n2)cc1)C(=O)NC1CCCCC1 [Compound 3.11, 3-cyclohexyl-1-methoxy-1-[[4-[5-(trifluoromethyl)-1,2,4-oxadiazol-3-yl]phenyl]methyl]urea] |  | ≥ 80 | ≥ 80 | ≥ 80
CON(Cc1ccc(-c2noc(C(F)(F)F)n2)cc1)C(=O)N(C)C#N [Compound 3.62, 1-cyano-3-methoxy-1-methyl-3-[[4-[5-(trifluoromethyl)-1,2,4-oxadiazol-3-yl]phenyl]methyl]urea] |  | ≥ 80 | ≥ 80 | ≥ 80
